IC50 data for 58 molecules are collected here from PubChem BioAssay AID602210 (Sanford-Burnham Center for Chemical Genomics, 2012).

Molecules are shown by their SMILES. The source made the active and inactive calls. How the calls were made is not given here.

The nature of the assay: H9c2 cardiomyoblast viability modulators under 2-DG – cell-based, ATPlite luminescence, rat, set 2, myocardial damage modulator project, dose response (AID 602210). The conditions noted are these: H9c2 rat cardiomyoblasts, 2-deoxyglucose-induced death, 2 h.
Take `Cc1cc(NC(=O)C2CCCCC2)nc2c1c(=O)oc1ccccc12`: the IC50 (usually the concentration that inhibits the measured activity by half) is 26.8 µM (inactive).
For the molecule `O=C(O)c1ccc2c(c1)S(=O)(=O)c1cc(N3CCN(c4cnccn4)CC3)ccc1C2=O`, the IC50 is 18.6 µM (inactive).
Turning to `CC(C)OCCCNC(=O)CCC(=O)NNc1nc2ccccc2c2nc(-c3ccccc3)nn12`, the IC50 is 22.2 µM (inactive).
As to `CCOC(=O)c1ccccc1OCc1cc(/C=N/NC(=O)c2cccnc2)ccc1OC`, the IC50 was 6.98 µM.
For the molecule `COc1ccc(CSc2nc3ccccc3c(=O)[nH]2)cc1F`, the IC50 is > 79 µM (inactive).
In the case of `O=C(N/N=C/c1ccncc1)c1ccc(COc2cccc3cccnc23)cc1` it was > 79 µM (inactive).
As for `Cc1[nH]c2ccccc2c1/C=N/NC(=O)c1cc(-c2cccs2)[nH]n1`, the IC50 is 5.8 µM.
In the case of `COc1cc(C(=O)Nc2ccc(NC(=O)c3ccco3)nc2)cc(OC)c1OC` it was 38.5 µM (inactive).
In the case of `CC(=O)Nc1ccc(-c2csc(NC(=O)Nc3ccccc3)n2)cc1` it was 1.94 µM.
In the case of `O=CNc1cc(-c2ccc(C(=O)NC3CC3)cc2)cn2c(-c3ccccc3)cnc12` it was 16.1 µM (inactive).
As to `NC(=O)c1nsc(C(=O)N(c2ccccc2F)C(C(=O)NCc2ccccc2)c2ccc(O)cc2)c1N` (stereo not drawn), the IC50 was 3.04 µM.
In the case of `CCOC(=O)c1ccc(-c2ccc3ncnc(NCc4csc(C)n4)c3c2)o1` it was > 79 µM (inactive); in that of `COc1ccc(-n2c(/C=C/c3ccc(O)cc3)nc3ccccc3c2=O)cc1`, 18.5 µM (inactive).
On to `COc1ccnc(Oc2ccccc2)c1C(=O)N/C=N/OCc1ccc(F)cc1Cl`, for which the IC50 was 8.39 µM.
For `O=C(C[C@@H]1C/C=C/CC[C@@H](Cc2ccc(F)cc2)C(=O)O[C@@H](c2ccccc2)CNC1=O)NCCO`, the IC50 was 27.5 µM (inactive).
Consider `CC(C)CC(C(=O)NC1CCCCC1)N(Cc1cccs1)C(=O)c1snc(C(N)=O)c1N` (stereo not drawn), for which the IC50 is 29.3 µM (inactive).
For the molecule `COc1ccccc1NC(=O)COc1ccc(C(=O)OCC(=O)NC(C)(C)C)cc1OC`, the IC50 is 23.9 µM (inactive).
Consider `COc1ccc(CCCNC(=O)C2(C)Cc3c(-c4ccc(NC(C)=O)cc4)ccnc3O2)cc1` (stereo not drawn), for which the IC50 is 12.5 µM (inactive).
`CCn1cc(C(=O)Nc2cccc(NC(C)=O)c2)c2cc(OC)c(OC)cc2c1=O`: the IC50 was 39.1 µM (inactive).
Turning to `CCCn1nc(C(=O)Nc2nc(-c3ccccn3)cs2)c2ccccc2c1=O`, the IC50 is 9.03 µM.
Regarding `Cc1ccc(C)c(NC(=O)C(Sc2nc3ccccc3c(=O)n2CC(C)C)c2ccccc2)c1` (stereo not drawn), the IC50 is 0.34 µM.
Take `CCCNC(=O)c1c(N)n(-c2cccc(OC)c2)c2nc3ccccc3nc12`: the IC50 was 14.9 µM (inactive).
On to `C=CCOC(=O)C1=C[C@H](c2cn(C(C)=O)c3ccccc23)C[C@H](OCc2ccc(CO)cc2)O1`, for which the IC50 is 21.5 µM (inactive).
`O=C(Nc1ccc2nc(N3CCOCC3)sc2c1)c1cc2ccccc2o1`: the IC50 was > 79 µM (inactive).
In the case of `COc1ccc(Cl)cc1NC(=O)CCS(=O)(=O)c1cc2c(cc1C)NC(=O)CO2` it was 26 µM (inactive); in that of `C[C@@H]1CN([C@@H](C)CO)C(=O)c2cc(NC(=O)Nc3ccccc3)ccc2O[C@H]1CN(C)C(=O)Nc1cccc2ccccc12`, 15 µM (inactive); in that of `COc1ccc2oc(C(=O)Nc3ccc(N4CCOCC4)cc3)c(C)c2c1`, > 79 µM (inactive).
In the case of `COc1cc2c(C#CCCCO)c(-c3ccsc3)oc(=O)c2cc1OC` it was 5.66 µM; in that of `COc1cc(-c2cc(NC=O)c3ncc(-c4ccccc4)n3c2)cc(OC)c1OC`, > 79 µM (inactive); in that of `COc1cc(-c2cc(NC=O)c3ncc(-c4ccc(C(C)=O)cc4)n3c2)ccc1O`, > 79 µM (inactive).
Consider `CC(=O)c1ccc(-c2cnc3c(NC=O)cc(-c4cccc(NS(C)(=O)=O)c4)cn23)cc1`, for which the IC50 was 18 µM (inactive).
Take `COc1ccccc1NC(=O)COc1ccc(/C=N/NC(=O)c2cccnc2)cc1`: the IC50 was 21.1 µM (inactive).
In the case of `CC(=O)Nc1ccc(S(=O)(=O)N(Cc2ccco2)Cc2cc3ccccc3[nH]c2=O)cc1` it was 8.86 µM; in that of `Cn1c(=O)c2[nH]c(NN=Cc3ccc(Br)cc3)nc2n(C)c1=O`, 10.6 µM (inactive).
In the case of `O=c1c2ccccc2nc2c3ccccc3c(NCCO)nn12`, the IC50 is 70.6 µM (inactive).
In the case of `Cc1c(O)ccc2c(-c3ccccc3)cc(=O)oc12` it was 31.7 µM (inactive); in that of `CC(=O)N1CCN(c2ccccc2NC(=O)c2ccc(-c3cccc([N+](=O)[O-])c3)o2)CC1`, 6.88 µM; in that of `CC(=O)Nc1cc(-c2ccc(C(=O)N3CCOCC3)cc2)cn2c(-c3ccc(C(C)=O)cc3)cnc12`, 27.1 µM (inactive).
In the case of `O=C(CNC(=O)c1nc[nH]c1C(=O)NCC(=O)OCc1ccccc1)OCc1ccccc1` it was 0.953 µM; in that of `CCN(CC)C(=O)c1[nH]cnc1C(=O)NCC(=O)OCc1ccccc1`, 8.7 µM.
On to `COc1ccc(-c2ccc3[nH]c4c(c3c2)CCN2C[C@H]3[C@H](C)ON(C)[C@H]3C[C@@H]42)cc1`, for which the IC50 was 29.8 µM (inactive).
In the case of `O=C(NCc1ccco1)C(c1ccccc1)N(C(=O)Cc1cccs1)c1ccccc1F` (stereo not drawn) it was 22.9 µM (inactive).
For the molecule `O=C(CSc1nnc(-c2ccccc2)n1Cc1ccccc1)NNC(=O)c1ccccc1O`, the IC50 is > 79 µM (inactive).
Regarding `Cc1c(OCC(=O)NCCN2CCOCC2)ccc2c1oc(=O)c1ccccc12`, the IC50 was 17.1 µM (inactive).
In the case of `CC(=O)Nc1cccc(-c2cc(NC=O)c3ncc(-c4ccc(C(C)=O)cc4)n3c2)c1` it was 13.6 µM (inactive).
In the case of `CCOC(=O)N1CCN(C(=O)CSc2nc3ccccc3c(=O)n2-c2ccccc2)CC1` it was 34.5 µM (inactive); in that of `CS(=O)(=O)Nc1cccc(NC(=O)c2cccc3c(-c4cccc(C(N)=O)c4)coc23)c1`, 5.97 µM.
In the case of `COCCn1ccc2c(OCC(=O)Nc3ccccc3OC)cccc2c1=O` it was 22.1 µM (inactive); in that of `O=C(NCC(=O)N(Cc1cccs1)C(C(=O)NC1CCCCC1)c1ccco1)c1ccco1` (stereo not drawn), 18.5 µM (inactive); in that of `Cc1ccc(C=NNc2nc3c([nH]2)c(=O)n(C)c(=O)n3C)cc1`, 11 µM (inactive).
With `CC(=O)c1cccc(-c2cnc3c(NC=O)cc(-c4cccc(C(=O)N(C)C)c4)cn23)c1`, the IC50 was 39.7 µM (inactive).
Regarding `CCOc1ccc(CCNC(=O)c2cc3c(C)nccc3[nH]c2=O)cc1OCC`, the IC50 was 8.64 µM.
Turning to `COc1cc(/C=N/NC(=O)c2cccnc2)ccc1OS(=O)(=O)c1ccc(F)cc1`, the IC50 is 21.2 µM (inactive).
On to `Cc1cccc(NC(=O)c2nc[nH]c2C(=O)NCC(=O)OCc2ccccc2)c1`, for which the IC50 is > 79 µM (inactive).
In the case of `COc1cc(C(=O)Nc2nc(-c3cccs3)cs2)cc(OC)c1OC` it was 8.7 µM; in that of `COC(=O)c1ccc(C(NC(=O)OCc2ccccc2)/C(C)=C/[C@@H](C)C(=O)NCc2ccc(OC)c(OC)c2)cc1` (stereo partly drawn), 23.8 µM (inactive).
In the case of `COc1cc(C(=O)NCC(=O)N/N=C/c2ccc(-c3cccc([N+](=O)[O-])c3)o2)cc(OC)c1OC`, the IC50 is 17.5 µM (inactive).
Regarding `CC(=O)Nc1ccc(Nc2nc(-c3sc(NC(C)=O)nc3C)cs2)cc1`, the IC50 is 18.8 µM (inactive).
